Data on one compound can be found in the NIST ThermoML archive (doi:10.1021/je700448v).

± gives the expanded uncertainty stated by the source.

The conditions of data set [1]: Crystal; DTA.
A short description of data set [2]: Molar enthalpy of transition or fusion. To be noted: Crystal; DSC.

With `O=Cc1ccc(Br)cc1` [4-bromobenzaldehyde], the Normal melting temperature in data set [1] stood at 61.1 ± 0.4 °C. Besides, the “Molar enthalpy of transition or fusion” value in data set [2] turned out to be 5.41 ± 0.124 kcal/mol.
